# According to ChEMBL document CHEMBL1201862, “PubChem BioAssay data set” (2004):
#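 Growth conditions: 96-well plates. Treatment: test compound, 48 hours, 5 concentrations. Analysis: linear interpolation between bracketing concentrations; unreached endpoints set to highest concentration. Abbreviation: GI50, concentration required for 50% inhibition of growth.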 Calls of active or inactive are those of the source. Cut-off read from the data, not from the text of the source: active = GI50 up to about 1.1 µM and inactive = higher.
# Tests used:
# Experiment in all cases: NCI-60 cell line screen, 48 h
# Hs-578T = tested on: Hs-578T
# SK-MEL-5 = tested on: SK-MEL-5
# BT-549 = tested on: BT-549
# U-251 = tested on: U-251
# COLO 205 = tested on: COLO 205
# SNB-75 = tested on: SNB-75
# UACC-62 = tested on: UACC-62
# MDA-MB-435 = tested on: MDA-MB-435
# OVCAR-5 = tested on: OVCAR-5
# TK-10 = tested on: TK-10
# RPMI-8226 = tested on: RPMI-8226
# LOX IMVI = tested on: LOX IMVI
# 786-0 = tested on: 786-0
# SF-295 = tested on: SF-295
# UO-31 = tested on: UO-31
# OVCAR-8 = tested on: OVCAR-8
# OVCAR-4 = tested on: OVCAR-4
# HCC 2998 = tested on: HCC 2998
# HOP-62 = tested on: HOP-62
# SNB-19 = tested on: SNB-19
# SF-539 = tested on: SF-539
# SW-620 = tested on: SW-620
# SK-MEL-28 = tested on: SK-MEL-28
# UACC-257 = tested on: UACC-257
# NCI-H460 = tested on: NCI-H460
# HOP-92 = tested on: HOP-92
# HT-29 = tested on: HT-29
# HCT-15 = tested on: HCT-15
# SN12C = tested on: SN12C
# PC-3 = tested on: PC-3
# ACHN = tested on: ACHN
# SF-268 = tested on: SF-268
# MDA-MB-231 = tested on: MDA-MB-231
# SK-OV-3 = tested on: SK-OV-3
# HCT-116 = tested on: HCT-116
# MOLT-4 = tested on: MOLT-4
# SK-MEL-2 = tested on: SK-MEL-2
# IGROV-1 = tested on: IGROV-1
# K562 = tested on: K562
# M14 = tested on: M14
# KM12 = tested on: KM12
# T47D = tested on: T47D
# DU-145 = tested on: DU-145
# SR = tested on: SR
# MCF7 = tested on: MCF7
# MDA-N = tested on: MDA-N
# CCRF-CEM = tested on: CCRF-CEM
# A498 = tested on: A498
# NCI-H226 = tested on: NCI-H226
# HL-60 = tested on: HL-60
# CAKI-1 = tested on: CAKI-1
# NCI-H522 = tested on: NCI-H522
# EKVX = tested on: EKVX
# Malme-3M = tested on: Malme-3M
# NCI-H23 = tested on: NCI-H23
# A549 = tested on: A549
# OVCAR-3 = tested on: OVCAR-3
# RXF 393 = tested on: RXF 393
# NCI/ADR-RES = tested on: NCI/ADR-RES
smiles,measurement,setting,value
COc1ccc(-c2cc(-c3ccc(Cl)cc3)n(C3OC(CO)C(O)C(O)C3O)c(=S)c2C#N)cc1 (stereo unspecified),GI50,Hs-578T,> 100 µM (inactive)
same,GI50,SK-MEL-5,16.8 µM (inactive)
same,GI50,BT-549,35.2 µM (inactive)
same,GI50,U-251,28.1 µM (inactive)
same,GI50,COLO 205,51.1 µM (inactive)
same,GI50,SNB-75,89.7 µM (inactive)
same,GI50,UACC-62,> 100 µM (inactive)
same,GI50,MDA-MB-435,75.5 µM (inactive)
same,GI50,OVCAR-5,33 µM (inactive)
same,GI50,TK-10,30.3 µM (inactive)
same,GI50,RPMI-8226,30.5 µM (inactive)
same,GI50,LOX IMVI,> 100 µM (inactive)
same,GI50,786-0,12.5 µM (inactive)
same,GI50,SF-295,> 100 µM (inactive)
same,GI50,UO-31,16.8 µM (inactive)
same,GI50,OVCAR-8,21 µM (inactive)
same,GI50,OVCAR-4,30 µM (inactive)
same,GI50,HCC 2998,64.9 µM (inactive)
same,GI50,HOP-62,57.8 µM (inactive)
same,GI50,SNB-19,> 100 µM (inactive)
same,GI50,SF-539,> 100 µM (inactive)
same,GI50,SW-620,48.2 µM (inactive)
same,GI50,SK-MEL-28,72.8 µM (inactive)
same,GI50,UACC-257,47.8 µM (inactive)
same,GI50,NCI-H460,13 µM (inactive)
same,GI50,HOP-92,> 100 µM (inactive)
same,GI50,HT-29,24.2 µM (inactive)
same,GI50,HCT-15,38.5 µM
same,GI50,SN12C,> 100 µM (inactive)
same,GI50,PC-3,> 100 µM (inactive)
same,GI50,ACHN,> 100 µM (inactive)
same,GI50,SF-268,20.6 µM (inactive)
same,GI50,MDA-MB-231,37.5 µM (inactive)
same,GI50,SK-OV-3,> 100 µM (inactive)
same,GI50,HCT-116,34.2 µM (inactive)
same,GI50,MOLT-4,5.79 µM (inactive)
same,GI50,SK-MEL-2,26.9 µM (inactive)
same,GI50,IGROV-1,26.5 µM (inactive)
same,GI50,K562,> 100 µM (inactive)
same,GI50,M14,30 µM (inactive)
same,GI50,KM12,49.9 µM (inactive)
same,GI50,T47D,29.2 µM (inactive)
same,GI50,DU-145,4.04 µM (inactive)
same,GI50,SR,42.9 µM (inactive)
same,GI50,MCF7,> 10 µM (inactive)
same,GI50,MDA-N,> 100 µM (inactive)
CCN(CC)P(=O)(c1ccc2c(c1)OCCOCCOCCOCCO2)N(CC)CC,GI50,Hs-578T,> 100 µM (inactive)
same,GI50,SK-MEL-5,> 100 µM (inactive)
same,GI50,BT-549,> 100 µM (inactive)
same,GI50,COLO 205,> 100 µM (inactive)
same,GI50,CCRF-CEM,> 100 µM (inactive)
same,GI50,SNB-75,> 100 µM (inactive)
same,GI50,A498,> 100 µM (inactive)
same,GI50,UACC-62,> 100 µM (inactive)
same,GI50,MDA-MB-435,> 100 µM (inactive)
same,GI50,TK-10,> 100 µM (inactive)
same,GI50,RPMI-8226,> 100 µM (inactive)
same,GI50,LOX IMVI,> 100 µM (inactive)
same,GI50,786-0,> 100 µM (inactive)
same,GI50,SF-295,> 100 µM (inactive)
same,GI50,UO-31,> 100 µM (inactive)
same,GI50,OVCAR-8,> 100 µM (inactive)
same,GI50,HCC 2998,> 100 µM (inactive)
same,GI50,NCI-H226,> 100 µM (inactive)
same,GI50,HOP-62,> 100 µM (inactive)
same,GI50,SNB-19,> 100 µM (inactive)
same,GI50,SF-539,> 100 µM (inactive)
same,GI50,SW-620,> 100 µM (inactive)
same,GI50,SK-MEL-28,> 100 µM (inactive)
same,GI50,HL-60,> 100 µM (inactive)
same,GI50,NCI-H460,> 100 µM (inactive)
same,GI50,HCT-15,> 100 µM
same,GI50,SN12C,> 100 µM (inactive)
same,GI50,PC-3,> 100 µM (inactive)
same,GI50,ACHN,> 100 µM (inactive)
same,GI50,SF-268,> 100 µM (inactive)
same,GI50,MDA-MB-231,> 100 µM (inactive)
same,GI50,SK-OV-3,> 100 µM (inactive)
same,GI50,HCT-116,> 100 µM (inactive)
same,GI50,CAKI-1,> 100 µM (inactive)
same,GI50,MOLT-4,> 100 µM (inactive)
same,GI50,IGROV-1,> 100 µM (inactive)
same,GI50,K562,> 100 µM (inactive)
same,GI50,NCI-H522,> 100 µM (inactive)
same,GI50,M14,> 100 µM (inactive)
same,GI50,EKVX,> 100 µM (inactive)
same,GI50,KM12,> 100 µM (inactive)
same,GI50,T47D,> 100 µM (inactive)
same,GI50,DU-145,> 100 µM (inactive)
same,GI50,SR,> 100 µM (inactive)
same,GI50,MCF7,> 100 µM (inactive)
same,GI50,Malme-3M,> 100 µM (inactive)
same,GI50,NCI-H23,> 100 µM (inactive)
same,GI50,MDA-N,> 100 µM (inactive)
same,GI50,A549,> 100 µM (inactive)
CNS(=O)(=O)c1ccc2c(c1)/C(=C1/Nc3ccccc3C1=O)C(=O)N2,GI50,Hs-578T,3.41 µM (inactive)
same,GI50,SK-MEL-5,5.2 µM (inactive)
same,GI50,BT-549,66.4 µM (inactive)
same,GI50,U-251,5.04 µM (inactive)
same,GI50,COLO 205,> 100 µM (inactive)
same,GI50,CCRF-CEM,30.8 µM (inactive)
same,GI50,SNB-75,> 100 µM (inactive)
same,GI50,A498,> 100 µM (inactive)
same,GI50,UACC-62,> 100 µM (inactive)
same,GI50,MDA-MB-435,> 100 µM (inactive)
same,GI50,OVCAR-3,> 100 µM (inactive)
same,GI50,OVCAR-5,> 100 µM (inactive)
same,GI50,RXF 393,> 100 µM (inactive)
same,GI50,TK-10,> 100 µM (inactive)
same,GI50,RPMI-8226,> 100 µM (inactive)
same,GI50,LOX IMVI,> 100 µM (inactive)
same,GI50,SF-295,> 100 µM (inactive)
same,GI50,UO-31,> 100 µM (inactive)
same,GI50,HCC 2998,> 100 µM (inactive)
same,GI50,NCI-H226,> 100 µM (inactive)
same,GI50,HOP-62,> 100 µM (inactive)
same,GI50,SNB-19,20.9 µM (inactive)
same,GI50,SW-620,> 100 µM (inactive)
same,GI50,SK-MEL-28,> 100 µM (inactive)
same,GI50,HL-60,14.6 µM (inactive)
same,GI50,UACC-257,> 100 µM (inactive)
same,GI50,NCI-H460,> 100 µM (inactive)
same,GI50,HT-29,> 100 µM (inactive)
same,GI50,HCT-15,49.4 µM
same,GI50,SN12C,> 100 µM (inactive)
same,GI50,PC-3,> 100 µM (inactive)
same,GI50,ACHN,> 100 µM (inactive)
same,GI50,SF-268,> 100 µM (inactive)
same,GI50,MDA-MB-231,2.63 µM (inactive)
same,GI50,SK-OV-3,92.9 µM (inactive)
same,GI50,HCT-116,> 100 µM (inactive)
same,GI50,CAKI-1,> 100 µM (inactive)
same,GI50,MOLT-4,39.6 µM (inactive)
same,GI50,SK-MEL-2,> 100 µM (inactive)
same,GI50,IGROV-1,18.7 µM (inactive)
same,GI50,K562,> 100 µM (inactive)
same,GI50,NCI/ADR-RES,67.8 µM (inactive)
same,GI50,NCI-H522,> 100 µM (inactive)
same,GI50,M14,> 100 µM (inactive)
same,GI50,EKVX,> 100 µM (inactive)
same,GI50,T47D,> 100 µM (inactive)
same,GI50,DU-145,> 100 µM (inactive)
same,GI50,Malme-3M,> 100 µM (inactive)
same,GI50,NCI-H23,9.4 µM (inactive)
same,GI50,MDA-N,> 100 µM (inactive)
same,GI50,A549,> 100 µM (inactive)
